Drawing on patent publication US20250361230A1, “LATS Inhibitors and Uses Thereof” (The USA, as Represented by the Secretary, Dept. of Heath …, priority 2022, published 2025), this text covers IC50 for 14 compounds.

Like-named read-outs stand apart in the source and are kept apart here.

What all share (type): biochemical
One experiment addresses T1, LATS1 (Homo sapiens, UniProt O95835).
T1 sequence (O95835 1-1130): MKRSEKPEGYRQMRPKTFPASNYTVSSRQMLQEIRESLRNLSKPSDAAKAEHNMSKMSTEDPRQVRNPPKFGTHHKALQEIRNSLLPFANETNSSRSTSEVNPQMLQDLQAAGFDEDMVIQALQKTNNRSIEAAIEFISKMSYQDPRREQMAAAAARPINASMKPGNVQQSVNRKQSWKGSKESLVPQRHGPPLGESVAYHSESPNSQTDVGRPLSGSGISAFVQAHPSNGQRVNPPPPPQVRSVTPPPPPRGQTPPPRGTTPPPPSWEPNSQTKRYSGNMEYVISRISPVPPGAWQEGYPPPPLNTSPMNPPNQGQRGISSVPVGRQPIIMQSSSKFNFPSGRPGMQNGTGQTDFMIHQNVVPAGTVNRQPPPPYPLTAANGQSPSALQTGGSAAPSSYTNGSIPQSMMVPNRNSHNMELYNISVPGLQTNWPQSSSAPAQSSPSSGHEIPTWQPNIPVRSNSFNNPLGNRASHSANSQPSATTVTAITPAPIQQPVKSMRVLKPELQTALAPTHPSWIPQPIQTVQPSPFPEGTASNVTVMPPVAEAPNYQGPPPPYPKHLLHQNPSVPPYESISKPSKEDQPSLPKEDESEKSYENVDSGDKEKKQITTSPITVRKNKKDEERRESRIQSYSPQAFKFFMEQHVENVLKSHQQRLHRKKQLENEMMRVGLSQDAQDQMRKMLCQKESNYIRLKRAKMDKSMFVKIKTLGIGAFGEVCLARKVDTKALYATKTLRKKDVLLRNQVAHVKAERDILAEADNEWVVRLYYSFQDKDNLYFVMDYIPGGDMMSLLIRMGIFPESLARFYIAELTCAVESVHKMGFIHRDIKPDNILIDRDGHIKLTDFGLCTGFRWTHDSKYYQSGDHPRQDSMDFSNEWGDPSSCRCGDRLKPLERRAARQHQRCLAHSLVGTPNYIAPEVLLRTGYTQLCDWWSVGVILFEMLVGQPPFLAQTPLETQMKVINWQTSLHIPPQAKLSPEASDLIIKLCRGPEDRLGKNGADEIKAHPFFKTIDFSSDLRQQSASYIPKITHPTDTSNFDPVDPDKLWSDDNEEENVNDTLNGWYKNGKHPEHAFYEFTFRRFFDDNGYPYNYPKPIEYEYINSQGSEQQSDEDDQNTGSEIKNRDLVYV
Nature of the experiment: RBC HotSpot kinase assay (33P-ATP, P81 filter-binding), LATS1. As to conditions: read-out: LATS1 IC50. The method, then:
(§1) Biochemical kinase inhibitory data was obtained for various exemplary compounds prepared according to the above.
(§2) The reagents used are as follows: Base Reaction buffer; 20 mM Hepes (pH 7.5), 10 mM MgCl2, 1 mM EGTA, 0.01% Brij35, 0.02 mg/ml BSA, 0.1 mM Na3VO4, 2 mM DTT, […]. Required cofactors were added individually to each kinase reaction.
(§3) The reaction procedure was as follows: • 1) Substrates were prepared in freshly prepared Reaction Buffer. • 2) Any required cofactors were delivered to the substrate solution above. • 3) Kinase was delivered into the substrate solution and gently mixed. • 4) Compounds were delivered in 100% DMSO into the kinase reaction mixture by Acoustic technology (Echo550; nanoliter range), followed by incubation for 20 min at room temp. • 5) ^33P-ATP was delivered into the reaction mixture to initiate the reaction. • 6) The mixture was incubated for 2 hours at room temperature. • 7) Kinase activity was detected by P81 filter-binding method.
(§4) Using the above functional assay, the inhibitory activity of the compounds for LATS1/2 versus AKT was characterized. The assays were typically run in a 10-point curve, in singlet, to produce a titration curve from which an IC50 value was obtained.
(§5) The reagents used are as follows: Base Reaction buffer; 20 mM Hepes (pH 7.5), 10 mM MgCl2, 1 mM EGTA, 0.01% Brij35, 0.02 mg/ml BSA, 0.1 mM Na3VO4, 2 mM DTT, 1% DMSO. Required cofactors were added individually to each kinase reaction.
(§6) Biochemical kinase inhibitory data was obtained for various exemplary compounds prepared according to the above in accordance with the protocols described in Examples 4 and 8. All biological activities are IC50, in nM.

A further experiment deals with T2, LATS2 (Homo sapiens, UniProt Q9NRM7).
T2 sequence (Q9NRM7 1-1088): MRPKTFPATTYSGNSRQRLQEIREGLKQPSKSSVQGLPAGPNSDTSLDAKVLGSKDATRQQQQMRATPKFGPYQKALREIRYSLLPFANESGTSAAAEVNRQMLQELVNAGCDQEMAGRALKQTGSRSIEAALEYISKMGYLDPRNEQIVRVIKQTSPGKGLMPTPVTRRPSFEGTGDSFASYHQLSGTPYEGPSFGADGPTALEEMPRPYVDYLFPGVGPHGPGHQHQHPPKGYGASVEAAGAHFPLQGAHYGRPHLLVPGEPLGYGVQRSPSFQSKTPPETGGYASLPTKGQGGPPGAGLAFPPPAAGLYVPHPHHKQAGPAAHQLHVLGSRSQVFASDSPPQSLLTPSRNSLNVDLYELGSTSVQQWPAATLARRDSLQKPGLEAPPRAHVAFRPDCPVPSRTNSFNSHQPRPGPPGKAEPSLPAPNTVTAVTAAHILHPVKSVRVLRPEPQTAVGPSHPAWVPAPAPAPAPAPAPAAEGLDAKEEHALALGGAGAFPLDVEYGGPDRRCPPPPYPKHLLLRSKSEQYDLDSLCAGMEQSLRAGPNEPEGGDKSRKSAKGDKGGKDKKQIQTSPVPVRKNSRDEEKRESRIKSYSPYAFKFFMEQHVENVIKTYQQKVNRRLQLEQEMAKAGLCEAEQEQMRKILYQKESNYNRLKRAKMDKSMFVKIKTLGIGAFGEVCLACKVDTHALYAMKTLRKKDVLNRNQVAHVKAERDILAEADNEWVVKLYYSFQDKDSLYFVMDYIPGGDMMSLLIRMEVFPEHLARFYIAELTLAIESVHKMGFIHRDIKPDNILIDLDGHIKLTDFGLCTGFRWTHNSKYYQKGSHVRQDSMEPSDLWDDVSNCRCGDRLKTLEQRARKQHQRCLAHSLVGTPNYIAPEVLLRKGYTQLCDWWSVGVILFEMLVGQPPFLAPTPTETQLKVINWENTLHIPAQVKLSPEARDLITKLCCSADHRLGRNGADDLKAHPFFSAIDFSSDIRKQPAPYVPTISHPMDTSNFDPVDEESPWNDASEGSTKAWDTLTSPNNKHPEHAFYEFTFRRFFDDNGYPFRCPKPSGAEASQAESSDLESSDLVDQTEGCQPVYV
Nature of the experiment: RBC HotSpot kinase assay (33P-ATP, P81 filter-binding), LATS2. As to conditions: read-out: LATS2 IC50. Here is the method: as §1, §2, §3, §4, §5, §6

For the next experiment, the target named is AKT (Homo sapiens, UniProt P31749). Description: RBC HotSpot kinase assay (33P-ATP, P81 filter-binding), AKT. As to conditions: read-out: AKT IC50. Here is the method: as §1, §2, §3, §4, §5, §6
Setting [1] is: Table 28, biochemical kinase assay.

Chain of AKT (P31749 whole entry): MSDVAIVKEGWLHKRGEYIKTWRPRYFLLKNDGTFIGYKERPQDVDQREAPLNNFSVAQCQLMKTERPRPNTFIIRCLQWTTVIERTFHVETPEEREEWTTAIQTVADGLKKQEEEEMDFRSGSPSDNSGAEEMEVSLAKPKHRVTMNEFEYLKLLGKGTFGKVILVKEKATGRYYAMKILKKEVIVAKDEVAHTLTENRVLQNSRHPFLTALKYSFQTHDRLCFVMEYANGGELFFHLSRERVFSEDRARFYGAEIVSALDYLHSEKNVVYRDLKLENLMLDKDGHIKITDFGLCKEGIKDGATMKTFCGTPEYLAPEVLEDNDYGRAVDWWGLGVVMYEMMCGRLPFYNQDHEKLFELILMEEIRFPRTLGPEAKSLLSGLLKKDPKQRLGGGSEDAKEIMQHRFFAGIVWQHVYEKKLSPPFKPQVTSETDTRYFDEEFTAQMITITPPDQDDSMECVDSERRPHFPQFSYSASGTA

Take `Cc1cc(-c2ccnc3[nH]cc(C#N)c23)cc(F)c1[C@@]1(O)[C@H](C)CN(C(=O)[C@H](N)CO)C[C@@H]1C` (single isomer, unassigned) [Compound 2006]: the IC50 was 3.6 nM on LATS1 (biochemical kinase inhibition), 1.4 nM on LATS2 (biochemical kinase inhibition) and 126 nM at AKT (biochemical kinase inhibition).
For `Cc1c[nH]c2nccc(-c3ccc([C@@]4(O)[C@H](C)CNC[C@@H]4C)cn3)c12` [Compound 3, (3R,4s,5S)-3,5-dimethyl-4-(6-(3-methyl-1H-pyrrolo[2,3-b]pyridin-4-yl)pyridin-3-yl)piperidin-4-ol], the 50% inhibitory concentration (IC50) on LATS1 (setting [1]) was determined as 72.3 nM; on LATS2 (setting [1]), 49.6 nM; at AKT (setting [1]), 4410 nM.
`COc1cc(-c2ccnc3[nH]cc(F)c23)ncc1[C@@]1(O)[C@H](C)CNC[C@@H]1C` [Compound 4, (3R,4s,5S)-4-(6-(3-fluoro-1H-pyrrolo[2,3-b]pyridin-4-yl)-4-methoxypyridin-3-yl)-3,5-dimethylpiperidin-4-ol]: the half-maximal inhibitory concentration (IC50) turned out to be 18.2 nM on LATS1 (setting [1]), 56.7 nM at LATS2 (setting [1]) and 4160 nM at AKT (setting [1]).
As for `C[C@@H]1CN(C)C[C@H](C)[C@@]1(O)c1ccc(-c2ccnc3[nH]cc(F)c23)cc1Cl` [Compound 5, (3S,4s,5R)-4-(2-chloro-4-(3-fluoro-1H-pyrrolo[2,3-b]pyridin-4-yl)phenyl)-1,3,5-trimethylpiperidin-4-ol], the figures for the IC50 at LATS1 (setting [1]), at LATS2 (setting [1]) and on AKT (setting [1]) were 9.2 nM, 12.5 nM and 67 nM, respectively.
Consider `CC(C)N1C[C@@H](C)[C@](O)(c2ccc(-c3ccnc4[nH]cc(F)c34)cc2Cl)[C@@H](C)C1` [Compound 6, (3S,4s,5R)-4-(2-chloro-4-(3-fluoro-1H-pyrrolo[2,3-b]pyridin-4-yl)phenyl)-1-isopropyl-3,5-dimethylpiperidin-4-ol], for which the IC50 stood at 1.3 nM at LATS1 (setting [1]), 1.4 nM at LATS2 (setting [1]) and 90.9 nM on AKT (setting [1]).
On to `Cc1nc(-c2ccnc3[nH]cc(F)c23)ccc1[C@@]1(O)[C@H](C)CNC[C@@H]1C` [Compound 10, (3S,4s,5R)-4-(6-(3-fluoro-1H-pyrrolo[2,3-b]pyridin-4-yl)-2-methylpyridin-3-yl)-3,5-dimethylpiperidin-4-ol], for which the IC50 stood at 23.7 nM on LATS1 (setting [1]), 20.3 nM on LATS2 (setting [1]) and 1720 nM on AKT (setting [1]).
Regarding `C[C@@H]1CNC[C@H](C)[C@@]1(O)c1ccc(-c2ccnc3[nH]cc(F)c23)cc1C(F)(F)F` [Compound 11, (3S,4s,5R)-4-(4-(3-fluoro-1H-pyrrolo[2,3-b]pyridin-4-yl)-2-(trifluoromethyl)phenyl)-3,5-dimethylpiperidin-4-ol], the IC50 was 11.1 nM on LATS1 (setting [1]), 10.7 nM at LATS2 (setting [1]) and 143 nM at AKT (setting [1]).
`Cc1cc(-c2ccnc3[nH]cc(F)c23)cc(Cl)c1[C@@]1(O)[C@H](C)CNC[C@@H]1C` [Compound 12, (3S,4s,5R)-4-(2-chloro-4-(3-fluoro-1H-pyrrolo[2,3-b]pyridin-4-yl)-6-methylphenyl)-3,5-dimethylpiperidin-4-ol]: the half-maximal inhibitory concentration (IC50) is 201 nM on LATS1 (setting [1]), 81.2 nM on LATS2 (setting [1]) and 10.1 nM on AKT (setting [1]).
Turning to `Cc1c[nH]c2nccc(-c3cc(F)c([C@@]4(O)[C@H](C)CNC[C@@H]4C)c(F)c3)c12` [Compound 15], the IC50 at LATS1 (setting [1]) was 8.5 nM; on LATS2 (setting [1]) it was 7.2 nM; on AKT (setting [1]), 362 nM.
With `Cc1cc(-c2ccnc3[nH]cc(F)c23)cc(F)c1[C@@]1(O)[C@H](C)CNC[C@@H]1C` [Compound 16, (3S,4s,5R)-4-(2-fluoro-4-(3-fluoro-1H-pyrrolo[2,3-b]pyridin-4-yl)-6-methylphenyl)-3,5-dimethylpiperidin-4-ol], the figures for the half-maximal inhibitory concentration (IC50) on LATS1 (setting [1]), at LATS2 (setting [1]) and on AKT (setting [1]) were 7.1 nM, 10 nM and 201 nM, respectively.
The corresponding values for `C[C@@H]1CN(Cc2ccncc2)C[C@H](C)[C@@]1(O)c1c(F)cc(-c2ccnc3[nH]cc(F)c23)cc1F` [Compound 19, (3S,4s,5R)-4-(2,6-difluoro-4-(3-fluoro-1H-pyrrolo[2,3-b]pyridin-4-yl)phenyl)-3,5-dimethyl-1-(pyridin-4-ylmethyl)piperidin-4-ol] are 11 nM, 9.2 nM and 1020 nM.
In the case of `C[C@@H]1CN(C2CCC2)C[C@H](C)[C@@]1(O)c1ccc(-c2ccnc3[nH]cc(F)c23)cc1Cl` [Compound 20, (3S,4s,5R)-4-(2-chloro-4-(3-fluoro-1H-pyrrolo[2,3-b]pyridin-4-yl)phenyl)-1-cyclobutyl-3,5-dimethylpiperidin-4-ol], the IC50 is 2.6 nM on LATS1 (setting [1]), 2.7 nM on LATS2 (setting [1]) and 195 nM on AKT (setting [1]).
For the compound `C[C@@H]1CN(C2COC2)C[C@H](C)[C@@]1(O)c1ccc(-c2ccnc3[nH]cc(F)c23)cc1Cl` [Compound 21, (3S,4s,5R)-4-(2-chloro-4-(3-fluoro-1H-pyrrolo[2,3-b]pyridin-4-yl)phenyl)-3,5-dimethyl-1-(oxetan-3-yl)piperidin-4-ol], the figures for the IC50 at LATS1 (setting [1]), at LATS2 (setting [1]) and at AKT (setting [1]) were 3 nM, 2.8 nM and 249 nM, respectively.
The matching figures for `C[C@@H]1CN(C2CCS(=O)(=O)CC2)C[C@H](C)[C@@]1(O)c1ccc(-c2ccnc3[nH]cc(F)c23)cc1Cl` [Compound 26, 4-((3S,4s,5R)-4-(2-chloro-4-(3-fluoro-1H-pyrrolo[2,3-b]pyridin-4-yl)phenyl)-4-hydroxy-3,5-dimethylpiperidin-1-yl)tetrahydro-2H-thiopyran 1,1-dioxide]: 0.73 nM, 0.51 nM and 18.8 nM.
